In US12624044B2, “SMARCA degraders and uses thereof” (Kymera Therapeutics, Inc., priority 2019, dated 2026):

Assays:
[1] = biological target: SMARCA2 (Homo sapiens, UniProt P51531); experiment: MSD SMARCA2 degradation in A549 cell line; type: cell-based; details: 24 h; for Dmax: A549, A549 cells; for DC50: A549 cells, read-out: SMARCA2 MSD A549 degradation 24 h: Average external-Abs DC50
Summary of the method: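 SMARCA2 remaining was measured by MSD electrochemiluminescence on RIPA lysates (anti-SMARCA2 plus SULFO-TAG anti-rabbit). Prior exposure: 24 h of A549 cells to a 10-point, 3-fold dilution series topping at 1000 nM final; Dmax % given as graded codes.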

[2] = biological target: T1, SMARCA4 (Homo sapiens, UniProt P51532); experiment: SMARCA4 Western blot MV4-11 degradation; type: cell-based; details: 24 h; for Dmax: MV4-11, MV4-11 cells, read-out: SMARCA4 WB MV411 degradation 24 h: Average Dmax %; for DC50: MV4-11 cells, read-out: SMARCA4 WB MV411 degradation 24 h: Average external-Abs DC50
T1 construct: SMARCA2 and SMARCA4 protein degradation in MV4-11 cells; endogenous in cells; host or cells: MV4-11
Summary of the method: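 MV4-11 cells treated with compound for 24 h, lysed in RIPA with protease/phosphatase inhibitors, and SMARCA2 and SMARCA4 (BRG1) levels assessed by Western blot with β-actin loading control and LI-COR fluorescent read-out. Maximal degradation (Dmax %) after 24 h binned into letter codes.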

T1 sequence (P51532 whole entry): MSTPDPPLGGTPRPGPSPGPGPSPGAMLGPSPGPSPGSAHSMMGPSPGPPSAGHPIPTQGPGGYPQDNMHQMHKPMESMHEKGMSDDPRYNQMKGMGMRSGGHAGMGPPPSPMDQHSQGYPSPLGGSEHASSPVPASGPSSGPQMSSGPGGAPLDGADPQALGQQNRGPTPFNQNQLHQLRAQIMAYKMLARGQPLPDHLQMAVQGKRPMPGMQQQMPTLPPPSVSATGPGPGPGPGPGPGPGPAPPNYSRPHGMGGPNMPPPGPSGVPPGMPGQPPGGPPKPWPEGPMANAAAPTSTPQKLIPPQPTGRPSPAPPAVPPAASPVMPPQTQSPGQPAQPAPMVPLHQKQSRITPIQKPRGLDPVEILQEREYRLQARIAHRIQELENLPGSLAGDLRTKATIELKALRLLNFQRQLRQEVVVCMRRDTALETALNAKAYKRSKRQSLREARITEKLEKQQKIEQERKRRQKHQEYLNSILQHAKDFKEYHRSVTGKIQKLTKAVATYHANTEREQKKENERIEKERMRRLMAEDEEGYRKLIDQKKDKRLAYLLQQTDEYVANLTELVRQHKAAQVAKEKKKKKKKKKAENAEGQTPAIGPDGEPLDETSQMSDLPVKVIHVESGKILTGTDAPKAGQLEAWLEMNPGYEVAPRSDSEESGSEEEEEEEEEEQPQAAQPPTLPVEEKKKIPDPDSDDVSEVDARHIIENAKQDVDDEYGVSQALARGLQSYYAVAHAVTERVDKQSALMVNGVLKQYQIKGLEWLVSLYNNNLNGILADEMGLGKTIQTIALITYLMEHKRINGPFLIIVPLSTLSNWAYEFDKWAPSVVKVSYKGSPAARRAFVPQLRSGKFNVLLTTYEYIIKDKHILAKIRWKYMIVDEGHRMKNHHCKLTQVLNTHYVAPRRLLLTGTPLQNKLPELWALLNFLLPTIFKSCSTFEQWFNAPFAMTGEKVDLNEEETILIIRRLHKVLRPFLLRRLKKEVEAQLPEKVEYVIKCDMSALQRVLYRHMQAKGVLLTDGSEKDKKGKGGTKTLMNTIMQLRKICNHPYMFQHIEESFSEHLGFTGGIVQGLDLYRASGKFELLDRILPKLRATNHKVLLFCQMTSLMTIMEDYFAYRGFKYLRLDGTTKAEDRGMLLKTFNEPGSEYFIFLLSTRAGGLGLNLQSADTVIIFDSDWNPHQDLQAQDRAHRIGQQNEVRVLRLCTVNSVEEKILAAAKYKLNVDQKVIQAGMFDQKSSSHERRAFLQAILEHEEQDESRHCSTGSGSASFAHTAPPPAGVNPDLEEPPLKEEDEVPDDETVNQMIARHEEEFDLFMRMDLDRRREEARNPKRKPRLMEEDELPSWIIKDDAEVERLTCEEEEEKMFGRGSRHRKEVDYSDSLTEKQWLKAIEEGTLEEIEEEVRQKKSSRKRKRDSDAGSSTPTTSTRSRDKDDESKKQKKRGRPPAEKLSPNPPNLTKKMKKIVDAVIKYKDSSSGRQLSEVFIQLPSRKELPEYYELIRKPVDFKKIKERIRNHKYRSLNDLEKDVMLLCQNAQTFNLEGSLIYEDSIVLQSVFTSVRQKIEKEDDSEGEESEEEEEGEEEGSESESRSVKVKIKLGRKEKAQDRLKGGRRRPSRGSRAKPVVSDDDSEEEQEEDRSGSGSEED
Sequence of SMARCA2 (P51531 whole entry): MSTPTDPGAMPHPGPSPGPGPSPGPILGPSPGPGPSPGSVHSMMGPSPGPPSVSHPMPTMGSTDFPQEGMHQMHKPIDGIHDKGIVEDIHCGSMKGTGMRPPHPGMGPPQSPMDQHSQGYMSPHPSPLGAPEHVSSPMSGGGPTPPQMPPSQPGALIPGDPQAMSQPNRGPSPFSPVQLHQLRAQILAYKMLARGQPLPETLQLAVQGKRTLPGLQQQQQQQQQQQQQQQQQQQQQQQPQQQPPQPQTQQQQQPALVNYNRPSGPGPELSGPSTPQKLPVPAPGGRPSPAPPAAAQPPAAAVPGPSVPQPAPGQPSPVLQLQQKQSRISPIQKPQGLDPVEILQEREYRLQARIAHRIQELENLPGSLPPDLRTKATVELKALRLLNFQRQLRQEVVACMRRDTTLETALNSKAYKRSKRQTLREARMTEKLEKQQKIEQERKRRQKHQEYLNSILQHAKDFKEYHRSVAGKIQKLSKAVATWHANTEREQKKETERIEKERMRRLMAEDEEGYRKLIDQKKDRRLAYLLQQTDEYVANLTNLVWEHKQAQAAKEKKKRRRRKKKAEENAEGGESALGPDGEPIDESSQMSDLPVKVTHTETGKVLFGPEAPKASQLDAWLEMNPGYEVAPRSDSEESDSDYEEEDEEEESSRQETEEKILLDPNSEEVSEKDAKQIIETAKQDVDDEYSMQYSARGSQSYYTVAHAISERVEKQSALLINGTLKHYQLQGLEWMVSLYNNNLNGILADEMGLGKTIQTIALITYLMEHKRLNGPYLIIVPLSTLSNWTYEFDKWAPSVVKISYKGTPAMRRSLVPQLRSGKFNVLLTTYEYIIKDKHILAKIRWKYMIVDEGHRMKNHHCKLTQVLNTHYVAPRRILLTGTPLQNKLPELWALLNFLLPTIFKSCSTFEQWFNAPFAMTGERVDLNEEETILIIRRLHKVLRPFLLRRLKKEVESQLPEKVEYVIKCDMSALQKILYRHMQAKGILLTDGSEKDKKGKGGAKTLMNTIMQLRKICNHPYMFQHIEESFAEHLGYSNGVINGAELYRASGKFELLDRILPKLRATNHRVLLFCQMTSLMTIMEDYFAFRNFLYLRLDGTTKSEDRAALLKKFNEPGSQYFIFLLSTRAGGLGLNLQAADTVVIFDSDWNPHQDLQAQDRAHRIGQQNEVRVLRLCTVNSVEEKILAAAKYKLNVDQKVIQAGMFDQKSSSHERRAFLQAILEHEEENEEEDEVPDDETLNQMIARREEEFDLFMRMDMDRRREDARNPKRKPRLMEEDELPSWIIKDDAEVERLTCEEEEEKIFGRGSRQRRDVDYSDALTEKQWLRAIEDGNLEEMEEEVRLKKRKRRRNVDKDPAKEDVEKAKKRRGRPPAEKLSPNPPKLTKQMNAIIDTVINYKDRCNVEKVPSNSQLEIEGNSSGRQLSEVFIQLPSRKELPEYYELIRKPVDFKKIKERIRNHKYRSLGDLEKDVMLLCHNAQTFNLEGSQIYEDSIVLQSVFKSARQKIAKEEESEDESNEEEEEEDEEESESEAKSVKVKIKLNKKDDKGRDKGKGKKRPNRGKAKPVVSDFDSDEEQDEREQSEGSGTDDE

| Compound | Dmax [1] [%] | DC50 [1] [nM] | Dmax [2] [%] | DC50 [2] [nM] |
| --- | --- | --- | --- | --- |
| Nc1nnc(-c2ccccc2O)cc1-c1cnn(C2CCN(C3CCC(Nc4cccc5c4C(=O)N(C4CCC(=O)NC4=O)C5=O)CC3)CC2)c1 (stereo not shown) [I-322] | > 90 | < 100 | > 90 | < 100 |
| Nc1nnc(-c2ccccc2O)cc1-c1cnn(C2CCN(C3CCC(Nc4ccc5c(c4)C(=O)N(C4CCC(=O)NC4=O)C5=O)CC3)CC2)c1 (stereo not shown) [I-323] | > 90 | < 100 | > 90 | < 100 |
| Nc1nnc(-c2ccccc2O)cc1-c1cnn(C2CCN(C3CCC(CNc4cccc5c4C(=O)N(C4CCC(=O)NC4=O)C5=O)CC3)CC2)c1 (stereo not shown) [I-324] | 70 to 90 | < 100 | 70 to 90 | < 100 |
| Nc1nnc(-c2ccccc2O)cc1-c1cnn(C2CCN([C@H]3CC[C@H](CNc4ccc5c(c4)C(=O)N(C4CCC(=O)NC4=O)C5=O)CC3)CC2)c1 (stereo partly shown) [I-325, 5-((((1r,4r)-4-(4-(4-(3-amino-6-(2-hydroxyphenyl)pyridazin-4-yl)-1H-pyrazol-1-yl)piperidin-1-yl)cyclohexyl)methyl)amino)-2-(2,6-dioxopiperidin-3-yl)isoindoline-1,3-dione] | 70 to 90 | < 100 | 70 to 90 | < 100 |
| COc1ccccc1-c1cc(N2CC3CCC(C2)N3c2ncc(C3CCN(CCCc4ccc5c(c4)n(C)c(=O)n5C4CCC(=O)NC4=O)CC3)cn2)c(N)nn1 (stereo not shown) [I-326] | < 50 | > 1000 | 50 to 70 | 100 to 500 |
| Cc1ncsc1-c1ccc(CNC(=O)[C@@H]2C[C@@H](O)CN2C(=O)[C@@H](NC(=O)C[C@H]2CC[C@H](N3CCC(n4cc(-c5cc(-c6ccccc6O)nnc5N)cn4)CC3)CC2)C(C)(C)C)cc1 [I-328] | > 90 | 100 to 500 | > 90 | < 100 |
| Cc1ncsc1-c1ccc(CNC(=O)[C@@H]2C[C@@H](O)CN2C(=O)[C@@H](NC(=O)C2CC3(C2)CC(N2CCC(n4cc(-c5cc(-c6ccccc6O)nnc5N)cn4)CC2)C3)C(C)(C)C)cc1 (stereo partly shown) [I-329] | > 90 | 100 to 500 | > 90 | < 100 |
| Cc1ncsc1-c1ccc(CNC(=O)[C@@H]2C[C@@H](O)CN2C(=O)[C@@H](NC(=O)CCCCCC2CCC(N3CCC(Cn4cc(-c5cc(-c6ccccc6O)nnc5N)cn4)CC3)CC2)C(C)(C)C)cc1 (stereo partly shown) [I-330] | > 90 | 100 to 500 | 70 to 90 | < 100 |
| COc1ccccc1-c1cc(N2CC3CCC(C2)N3c2ncc([C@H]3CC[C@@H](CC(=O)N[C@H](C(=O)N4C[C@H](O)C[C@H]4C(=O)NCc4ccc(-c5scnc5C)cc4)C(C)(C)C)CC3)cn2)c(N)nn1 [I-331] | > 90 | 100 to 500 | > 90 | < 100 |
| Cc1ncsc1-c1ccc(CNC(=O)[C@@H]2C[C@@H](O)CN2C(=O)[C@@H](NC(=O)C[C@H]2CC[C@H](c3cnc(N4C5CCC4CN(c4cc(-c6ccccc6O)nnc4N)C5)nc3)CC2)C(C)(C)C)cc1 [I-332] | > 90 | < 100 | > 90 | < 100 |
| Cc1ncsc1-c1ccc(CNC(=O)[C@@H]2C[C@@H](O)CN2C(=O)[C@@H](NC(=O)N[C@H]2CC[C@H](c3cnc(N4C5CCC4CN(c4cc(-c6ccccc6O)nnc4N)C5)nc3)CC2)C(C)(C)C)cc1 [I-333] | < 50 | > 1000 | > 90 | < 100 |
| Cc1ncsc1-c1ccc(CNC(=O)[C@@H]2C[C@@H](O)CN2C(=O)[C@@H](NC(=O)N[C@H]2CC[C@@H](c3cnc(N4C5CCC4CN(c4cc(-c6ccccc6O)nnc4N)C5)nc3)CC2)C(C)(C)C)cc1 [I-334] | 70 to 90 | 501 to 1000 | > 90 | < 100 |
| Cc1ncsc1-c1ccc(CNC(=O)[C@@H]2C[C@@H](O)CN2C(=O)[C@@H](NC(=O)Cc2ccc(-c3cnc(N4C5CCC4CN(c4cc(-c6ccccc6O)nnc4N)C5)nc3)cc2)C(C)(C)C)cc1 [I-335] | > 90 | < 100 | > 90 | < 100 |
| Cc1ncsc1-c1ccc(CNC(=O)[C@@H]2C[C@@H](O)CN2C(=O)[C@@H](NC(=O)C2CCN(Cc3cnc(N4C5CCC4CN(c4cc(-c6ccccc6O)nnc4N)C5)nc3)CC2)C(C)(C)C)cc1 [I-338] | > 90 | 100 to 500 | > 90 | < 100 |
| Cc1ncsc1-c1ccc(CNC(=O)[C@@H]2C[C@@H](O)CN2C(=O)[C@@H](NC(=O)N2CCN(Cc3cnc(N4C5CCC4CN(c4cc(-c6ccccc6O)nnc4N)C5)nc3)CC2)C(C)(C)C)cc1 [I-339] | 70 to 90 | 100 to 500 | > 90 | < 100 |
| Cc1ncsc1-c1ccc(CNC(=O)[C@@H]2C[C@@H](O)CN2C(=O)[C@@H](NC(=O)COCC#Cc2cnc(N3C4CCC3CN(c3cc(-c5ccccc5O)nnc3N)C4)nc2)C(C)(C)C)cc1 [I-340] | > 90 | 100 to 500 | > 90 | < 100 |
| Cc1ncsc1-c1ccc(CNC(=O)[C@@H]2C[C@@H](O)CN2C(=O)[C@@H](NC(=O)CCCC#Cc2cnc(N3C4CCC3CN(c3cc(-c5ccccc5O)nnc3N)C4)nc2)C(C)(C)C)cc1 [I-341] | > 90 | 100 to 500 | > 90 | < 100 |
| Cc1ncsc1-c1ccc(CNC(=O)[C@@H]2C[C@@H](O)CN2C(=O)[C@@H](NC(=O)C2CCN(C(=O)c3cnc(N4C5CCC4CN(c4cc(-c6ccccc6O)nnc4N)C5)nc3)CC2)C(C)(C)C)cc1 [I-342, 1-[2-[3-[3-amino-6-(2-hydroxyphenyl)pyridazin-4-yl]-3,8-diazabicyclo [3.2.1]octan-8-yl]pyrimidine-5-carbonyl]-N-[(1S)-1-[(2S,4R)-4-hydroxy-2-[[4-(4-methylthiazol-5-yl)phenyl]methylcarbamoyl]pyrrolidine-1-carbonyl]-2,2-dimethyl-propyl]piperidine-4-carboxamide] | < 50 | > 1000 | 70 to 90 | 100 to 500 |
| Cc1ncsc1-c1ccc(CNC(=O)[C@@H]2C[C@@H](O)CN2C(=O)[C@@H](NC(=O)N2CCN(C(=O)c3cnc(N4C5CCC4CN(c4cc(-c6ccccc6O)nnc4N)C5)nc3)CC2)C(C)(C)C)cc1 [I-343] | < 50 | > 1000 | > 90 | 100 to 500 |
| Cc1ncsc1-c1ccc(CNC(=O)[C@@H]2C[C@@H](O)CN2C(=O)[C@@H](NC(=O)C(=O)N2CCC(c3cnc(N4C5CCC4CN(c4cc(-c6ccccc6O)nnc4N)C5)nc3)CC2)C(C)(C)C)cc1 [I-344] | < 50 | > 1000 | 50 to 70 | > 1000 |
| Cc1cc(CC(=O)N[C@H](C(=O)N2C[C@H](O)C[C@H]2C(=O)NCc2ccc(-c3scnc3C)cc2)C(C)(C)C)ccc1-c1cnc(N2C3CCC2CN(c2cc(-c4ccccc4O)nnc2N)C3)nc1 [I-345] | > 90 | < 100 | > 90 | < 100 |
| Cc1ncsc1-c1ccc(CNC(=O)[C@@H]2C[C@@H](O)CN2C(=O)C(NC(=O)C[C@H]2CC[C@@H](N3CCC(c4cnc(N5C6CCC5CN(c5cc(-c7ccccc7O)nnc5N)C6)nc4)CC3)CC2)C(C)(C)C)cc1 (stereo partly shown) [I-346] | > 90 | 100 to 500 | 70 to 90 | < 100 |
| Cc1ncsc1-c1ccc(CNC(=O)[C@@H]2C[C@@H](O)CN2C(=O)[C@@H](NC(=O)[C@H]2CC[C@@H](N3CCC(c4cnc(N5C6CCC5CN(c5cc(-c7ccccc7O)nnc5N)C6)nc4)CC3)CC2)C(C)(C)C)cc1 [I-347] | 70 to 90 | 100 to 500 | 50 to 70 | > 1000 |
| Cc1ncsc1-c1ccc(CNC(=O)[C@@H]2C[C@@H](O)CN2C(=O)[C@@H](NC(=O)c2ccc(CN3CCC(c4cnc(N5C6CCC5CN(c5cc(-c7ccccc7O)nnc5N)C6)nc4)CC3)cc2)C(C)(C)C)cc1 [I-348] | > 90 | < 100 | > 90 | < 100 |
| Cc1ncsc1-c1ccc(CNC(=O)[C@@H]2C[C@@H](O)CN2C(=O)[C@@H](NC(=O)N2CCC(N3CCC(c4cnc(N5C6CCC5CN(c5cc(-c7ccccc7O)nnc5N)C6)nc4)CC3)CC2)C(C)(C)C)cc1 [I-350, 4-(2-(3-(3-amino-6-(2-hydroxyphenyl)pyridazin-4-yl)-3,8-diazabicyclo [3.2.1]octan-8-yl)pyrimidin-5-yl)-N—((S)-1-((2S,4R)-4-hydroxy-2-((4-(4-methylthiazol-5-yl)benzyl)carbamoyl)pyrrolidin-1-yl)-3,3-dimethyl-1-oxobutan-2-yl)-[1,4′-bipiperidine]-1′-carboxamide] | < 50 | > 1000 | < 50 | > 1000 |
| Cc1ncsc1-c1ccc(CNC(=O)[C@@H]2C[C@@H](O)CN2C(=O)[C@@H](NC(=O)CCCCN2CCC(CN3CCC(Cn4cc(-c5cc(-c6ccccc6O)nnc5N)cn4)CC3)CC2)C(C)(C)C)cc1 [I-351] | < 50 | > 1000 | < 50 | > 1000 |
| Cc1ncsc1-c1ccc(CNC(=O)[C@@H]2C[C@@H](O)CN2C(=O)[C@@H](NC(=O)CCCCN2CCC(C(=O)N3CCC(Cn4cc(-c5cc(-c6ccccc6O)nnc5N)cn4)CC3)CC2)C(C)(C)C)cc1 [I-352] | < 50 | > 1000 | < 50 | > 1000 |
| Cc1ncsc1-c1ccc(CNC(=O)[C@@H]2C[C@@H](O)CN2C(=O)[C@@H](NC(=O)c2ccc(-c3ccc(N4CCC(Cn5cc(-c6cc(-c7ccccc7O)nnc6N)cn5)CC4)cc3)cc2)C(C)(C)C)cc1 [I-353] | < 50 | > 1000 | 70 to 90 | > 1000 |
